Measurements as given in patent US9284330B2 (priority 2011, dated 2016).
Where two headings read alike, the source gives them in different places.

Experiments:
[1] = molecular target: acetylcholinesterase (Electrophorus electricus (Electric eel) (Gymnotus electricus), UniProt O42275); test: biochemical
[2] = tested on: primary cortical neuron cells; test: Effect of the compounds on the morphology of neurons (microscopy); conditions: 0.01 to 1 μM, 24 h
[3] = tested on: primary cortical neuron cells; conditions: for Relative neuron activity (average): 24 h incubation; for Toxicity to primary neurons (in words): concentrations tested 0.01, 0.1 and 1 μM, 24 h
[4] = tested on: L-type Ca2+ channel; test: Blocking of L-type Ca2+ channel by patch clamp, calcium current in rat dorsal root ganglion cells; format: cell-based; conditions: whole cell patch clamp
[5] = tested on: L-type Ca2+ channel; test: Blocking of L-type Ca2+ channel by high content screening analyzer, KCl-induced calcium ion influx in SH-SY5Y cells (Fluo-4-AM)
[6] = tested on: tau protein phosphorylation; format: cell-based; conditions: Western blot, 24 h incubation

Chain of acetylcholinesterase (O42275 whole entry, looked up): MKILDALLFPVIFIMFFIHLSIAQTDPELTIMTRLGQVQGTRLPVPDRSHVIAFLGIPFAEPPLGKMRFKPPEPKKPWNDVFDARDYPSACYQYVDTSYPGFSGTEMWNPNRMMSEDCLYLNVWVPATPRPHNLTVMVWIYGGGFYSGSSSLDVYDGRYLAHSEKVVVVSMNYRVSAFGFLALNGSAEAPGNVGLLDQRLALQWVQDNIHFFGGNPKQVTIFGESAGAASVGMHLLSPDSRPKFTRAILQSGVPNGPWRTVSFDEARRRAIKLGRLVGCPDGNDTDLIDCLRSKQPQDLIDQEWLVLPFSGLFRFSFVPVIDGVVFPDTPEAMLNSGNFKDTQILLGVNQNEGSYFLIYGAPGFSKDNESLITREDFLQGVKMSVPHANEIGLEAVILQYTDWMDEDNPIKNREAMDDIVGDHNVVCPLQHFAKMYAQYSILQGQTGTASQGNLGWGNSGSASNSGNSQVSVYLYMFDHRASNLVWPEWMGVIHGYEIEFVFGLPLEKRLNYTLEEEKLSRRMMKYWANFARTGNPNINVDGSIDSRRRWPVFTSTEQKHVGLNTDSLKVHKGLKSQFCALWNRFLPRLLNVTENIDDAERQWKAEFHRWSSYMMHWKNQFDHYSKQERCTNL

Compound: CCOC(=O)C1=C(C)Nc2nc3c(c(N)c2C1c1ccccc1Cl)CC(C)(C)CC3 (stereo not drawn) [Compound S1, 5-amino-4-(2-chlorphenyl)-2,7,7-trimethyl-1,4,6,7,8,9-hexahydrobenzo[b][1,8]naphthyridine-3-carboxylic acid ethyl ester]
- IC50 [1]: 768 nM
- Effect on the morphology of neurons [2]: no effect on the morphology of neurons
- Relative neuron activity (average) ([3]; 0.01 μM): 110.6%
- Relative neuron activity (average) ([3]; 0.1 μM): 113.9%
- Relative neuron activity (average) ([3]; 1 μM): 97.9%
- Toxicity to primary neurons (in words) [3]: no significant toxicity
- Inhibition rate of L-type Ca2+ channel current ([4]; 100 nmol/L compound): 38.14%
- Inhibition rate of L-type Ca2+ channel current ([4]; 1000 nmol/L compound): 61.76%
- Inhibition rate of KCl-induced calcium ion influx ([5]; 10 μM compound): 29.29%
- Inhibition rate of KCl-induced calcium ion influx ([5]; 50 μM compound): 63.60%
- Intracellular tau protein phosphorylation of neurons [6]: reduced

Compound: CC1=C(C(=O)OC(C)C)C(c2cccc(F)c2)c2c(nc3c(c2N)CC(C)(C)CC3)N1 (stereo not drawn) [Compound S3, 5-amino-4-(3-fluorophenyl)-2,7,7-trimethyl-1,4,6,7,8,9-hexahydrobenzo[b][1,8]napht hyridine-3-carboxylic acid isopropyl ester]
- IC50 [1]: 1130 nM
- Relative neuron activity (average) ([3]; 0.01 μM): 107.7%
- Relative neuron activity (average) ([3]; 0.1 μM): 102.4%
- Relative neuron activity (average) ([3]; 1 μM): 98.8%
- Toxicity to primary neurons (in words) [3]: no significant toxicity
- Inhibition rate of KCl-induced calcium ion influx ([5]; 10 μM compound): 81.33%
- Inhibition rate of KCl-induced calcium ion influx ([5]; 50 μM compound): 86.82%
- Intracellular tau protein phosphorylation of neurons [6]: reduced

Compound: CCOC(=O)C1=C(C)Nc2nc3c(c(N)c2C1c1cccc(Cl)c1)CC(C)(C)CC3 (stereo not drawn) [Compound S6, 5-amino-4-(3-chlorphenyl)-2,7,7-trimethyl-1,4,6,7,8,9-hexahydrobenzo[b][6,8]naphth yridine-3-carboxylic acid ethyl ester]
- IC50 [1]: 893 nM
- Relative neuron activity (average) ([3]; 0.01 μM): 107.1%
- Relative neuron activity (average) ([3]; 0.1 μM): 105.3%
- Relative neuron activity (average) ([3]; 1 μM): 99.0%
- Toxicity to primary neurons (in words) [3]: no significant toxicity
- Inhibition rate of KCl-induced calcium ion influx ([5]; 10 μM compound): 11.30%
- Inhibition rate of KCl-induced calcium ion influx ([5]; 50 μM compound): 95.51%
- Intracellular tau protein phosphorylation of neurons [6]: reduced

Compound: CC1=C(C(=O)OC(C)C)C(c2ccccc2F)c2c(nc3c(c2N)CC(C)(C)CC3)N1 (stereo not drawn) [Compound S8, 5-amino-4-(2-fluorophenyl)-2,7,7-trimethyl-1,4,6,7,8,9-hexahydrobenzo[b][1,8]napht hyridine-3-carboxylic acid isopropyl ester]
- IC50 [1]: 757 nM
- Relative neuron activity (average) ([3]; 0.01 μM): 114.7%
- Relative neuron activity (average) ([3]; 0.1 μM): 101.7%
- Relative neuron activity (average) ([3]; 1 μM): 97.7%
- Toxicity to primary neurons (in words) [3]: no significant toxicity
- Inhibition rate of KCl-induced calcium ion influx ([5]; 10 μM compound): 61.63%
- Inhibition rate of KCl-induced calcium ion influx ([5]; 50 μM compound): 93.28%
- Intracellular tau protein phosphorylation of neurons [6]: reduced

Compound: COC(=O)C1=C(C)Nc2nc3c(c(N)c2C1c1cccc([N+](=O)[O-])c1)CCCC3C (stereo not drawn) [Compound S15, 5-amino-4-(3-nitrophenyl)-2,9-dimethyl-1,4,6,7,8,9-hexahydrobenzo[b][1,8]naphthyridine-3-carboxylic acid methyl ester]
- IC50 [1]: 729 nM
- Relative neuron activity (average) ([3]; 0.01 μM): 111.9%
- Relative neuron activity (average) ([3]; 0.1 μM): 105.8%
- Relative neuron activity (average) ([3]; 1 μM): 65.9%
- Toxicity to primary neurons (in words) [3]: minor toxicity
- Intracellular tau protein phosphorylation of neurons [6]: reduced

Compound: COC(=O)C1=C(C)Nc2nc3c(c(N)c2C1c1cccc(Cl)c1Cl)CC(C)CC3 (stereo not drawn) [Compound S27, 5-amino-4-(2,3-dichlorophenyl)-2,7-dimethyl-1,4,6,7,8,9-hexahydrobenzo[b][1,8]nap hthyridine-3-carboxylic acid methyl ester]
- IC50 [1]: 178 nM
- Relative neuron activity (average) ([3]; 0.01 μM): 123.7%
- Relative neuron activity (average) ([3]; 0.1 μM): 102.9%
- Relative neuron activity (average) ([3]; 1 μM): 43.0%
- Inhibition rate of L-type Ca2+ channel current ([4]; 100 nmol/L compound): 39.68%
- Inhibition rate of L-type Ca2+ channel current ([4]; 1000 nmol/L compound): 65.54%

Compound: CC1=C(C(=O)OCCN(C)C)C(c2ccccc2)c2c(nc3c(c2N)CC(F)(F)CC3)N1 (stereo not drawn) [Compound S29, 5-amino-7,7-difluoro-2-methyl-4-phenyl-1,4,6,7,8,9-hexahydrobenzo[b][1,8]naphthyr idine-3-carboxylic acid-2-(dimethylamino) ethyl ester]
- IC50 [1]: 45 nM
- Inhibition rate of L-type Ca2+ channel current ([4]; 100 nmol/L compound): 11.64%
- Inhibition rate of L-type Ca2+ channel current ([4]; 1000 nmol/L compound): 23.76%
- Inhibition rate of KCl-induced calcium ion influx ([5]; 10 μM compound): 17.93%
- Inhibition rate of KCl-induced calcium ion influx ([5]; 50 μM compound): 57.19%

Compound: CC1=C(C(=O)OC(C)C)C(c2ccccc2Cl)c2c(nc3c(c2N)CC(C)(C)CC3)N1 (stereo not drawn) [Compound S32, 5-amino-2,7,7-trimethyl-4-(2-chlorphenyl)-1,4,6,7,8,9-hexahydrobenzo[b][1,8]naphth yridine-3-carboxylic acid isopropyl ester]
- IC50 [1]: 6920 nM
- Relative neuron activity (average) ([3]; 0.01 μM): 115.5%
- Relative neuron activity (average) ([3]; 0.1 μM): 106.5%
- Relative neuron activity (average) ([3]; 1 μM): 98.6%
- Toxicity to primary neurons (in words) [3]: no significant toxicity
- Inhibition rate of KCl-induced calcium ion influx ([5]; 10 μM compound): 29.49%
- Inhibition rate of KCl-induced calcium ion influx ([5]; 50 μM compound): 91.10%
- Intracellular tau protein phosphorylation of neurons [6]: reduced
